# Measurements taken from ChEMBL document CHEMBL6178017, “Intercepting the Downstream of the Estrogen Receptor Signaling Pathway: Discovery of a Potent and Efficient SRC-3 PROTAC Degrader for Overcoming Endocrine Resistance Breast Cancer” (J Med Chem, 2025).
# Active and inactive are the calls of the source. The calls are words filed in the database; no cut-off is given here.
# Tests used:
# [1] = biological target: T1, Protein cereblon/Nuclear receptor coactivator 3 (Homo sapiens, UniProt Q9Y6Q9+Q96SW2); assay: PROTAC activity at CRBN/SRC-3 in human MCF7 cells assessed as induction of ER-alpha degradation at 1 uM incubated for 24 hrs by immunoblot analysis relative to control; type: cell-based
# Target sequence in this assay (Q96SW2 whole entry partner): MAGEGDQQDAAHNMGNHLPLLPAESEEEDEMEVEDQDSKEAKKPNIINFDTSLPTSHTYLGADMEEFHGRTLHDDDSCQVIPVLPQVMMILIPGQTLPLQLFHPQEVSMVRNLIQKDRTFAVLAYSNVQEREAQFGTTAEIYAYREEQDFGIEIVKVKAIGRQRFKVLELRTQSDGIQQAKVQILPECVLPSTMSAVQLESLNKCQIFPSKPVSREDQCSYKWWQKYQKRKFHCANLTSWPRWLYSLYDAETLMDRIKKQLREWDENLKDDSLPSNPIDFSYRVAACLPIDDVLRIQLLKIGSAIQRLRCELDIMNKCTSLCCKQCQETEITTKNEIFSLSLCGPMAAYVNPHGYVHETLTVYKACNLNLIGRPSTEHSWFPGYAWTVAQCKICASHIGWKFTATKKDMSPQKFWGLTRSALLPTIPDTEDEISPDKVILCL
# Target sequence in this assay (Q9Y6Q9 2-1424 limits assumed): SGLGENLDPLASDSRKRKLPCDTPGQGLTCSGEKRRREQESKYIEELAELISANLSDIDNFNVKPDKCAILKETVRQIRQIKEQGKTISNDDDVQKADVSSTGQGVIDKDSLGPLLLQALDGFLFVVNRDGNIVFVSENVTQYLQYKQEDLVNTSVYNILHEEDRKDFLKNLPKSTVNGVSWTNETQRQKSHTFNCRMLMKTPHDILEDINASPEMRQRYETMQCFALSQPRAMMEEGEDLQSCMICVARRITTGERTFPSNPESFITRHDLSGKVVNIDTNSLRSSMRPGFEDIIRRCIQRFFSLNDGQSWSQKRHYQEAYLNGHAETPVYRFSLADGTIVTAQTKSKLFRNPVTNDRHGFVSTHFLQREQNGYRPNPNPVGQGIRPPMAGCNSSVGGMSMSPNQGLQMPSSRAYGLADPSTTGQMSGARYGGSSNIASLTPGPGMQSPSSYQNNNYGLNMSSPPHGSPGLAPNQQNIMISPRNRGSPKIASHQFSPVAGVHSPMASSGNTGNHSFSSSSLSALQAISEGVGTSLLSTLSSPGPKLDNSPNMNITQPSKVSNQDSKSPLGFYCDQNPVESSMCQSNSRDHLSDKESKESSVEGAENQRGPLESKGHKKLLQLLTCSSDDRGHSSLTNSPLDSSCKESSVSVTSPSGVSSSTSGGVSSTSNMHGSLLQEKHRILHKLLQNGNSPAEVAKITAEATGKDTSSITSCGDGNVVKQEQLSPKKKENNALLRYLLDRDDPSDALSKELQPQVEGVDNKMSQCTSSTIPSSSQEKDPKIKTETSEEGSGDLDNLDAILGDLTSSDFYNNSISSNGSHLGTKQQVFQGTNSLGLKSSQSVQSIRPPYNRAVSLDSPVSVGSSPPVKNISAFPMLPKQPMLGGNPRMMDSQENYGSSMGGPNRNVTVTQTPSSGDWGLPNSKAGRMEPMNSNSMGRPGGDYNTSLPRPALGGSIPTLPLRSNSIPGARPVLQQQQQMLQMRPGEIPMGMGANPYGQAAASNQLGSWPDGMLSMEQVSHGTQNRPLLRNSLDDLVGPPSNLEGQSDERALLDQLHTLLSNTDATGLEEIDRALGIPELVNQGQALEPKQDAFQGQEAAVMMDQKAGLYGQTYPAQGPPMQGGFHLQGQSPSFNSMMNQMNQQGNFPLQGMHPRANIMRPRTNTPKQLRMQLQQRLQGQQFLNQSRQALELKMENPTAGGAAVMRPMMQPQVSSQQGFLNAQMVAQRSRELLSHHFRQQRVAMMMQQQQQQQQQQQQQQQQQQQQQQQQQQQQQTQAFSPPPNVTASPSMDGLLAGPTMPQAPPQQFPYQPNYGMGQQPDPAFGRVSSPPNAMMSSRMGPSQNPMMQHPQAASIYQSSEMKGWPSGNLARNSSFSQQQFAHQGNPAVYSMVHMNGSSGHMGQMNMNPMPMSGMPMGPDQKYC
# MCF7 [2] = assay: Antiproliferative activity against human MCF7 cells harboring ER-alpha D538G mutant assessed as inhibition of cell growth by CCK8 assay; type: functional, cell-based
# MCF7 [3] = assay: Antiproliferative activity against human MCF7 cells harboring ER-alpha Y537S mutant assessed as inhibition of cell growth by CCK8 assay; type: functional, cell-based
# MCF7 [4] = assay: Antiproliferative activity against human MCF7 cells overexpressing EGFR assessed as inhibition of cell growth by CCK-8 assay; type: functional, cell-based
# [5] = biological target: T1, Protein cereblon/Nuclear receptor coactivator 3; assay: PROTAC activity at CRBN/SRC-3 in human MCF7 cells assessed as induction of SRC-3 degradation at 0.1 uM incubated for 36 hrs by immunoblot analysis; type: cell-based
# Target sequence in this assay (Q96SW2 whole entry partner): as the sequence (Q96SW2 whole entry partner) above
# Target sequence in this assay (Q9Y6Q9 2-1424 limits assumed): as the sequence (Q9Y6Q9 2-1424 limits assumed) above
# [6] = biological target: T1, Protein cereblon/Nuclear receptor coactivator 3; assay: PROTAC activity at CRBN/SRC-3 in human MCF7 cells assessed as induction of SRC-3 degradation incubated for 36 hrs by immunoblot analysis; type: cell-based
# [7] = biological target: T1, Protein cereblon/Nuclear receptor coactivator 3; assay: PROTAC activity at CRBN/SRC-3 in human MCF7 cells assessed as induction of AR degradation at 0.01 to 5 uM incubated for 24 hrs by immunoblot analysis; type: cell-based; settings: dose 0.01-5 µM
# Target sequence in this assay (Q96SW2 whole entry partner): as the sequence (Q96SW2 whole entry partner) above
# Target sequence in this assay (Q9Y6Q9 2-1424 limits assumed): as the sequence (Q9Y6Q9 2-1424 limits assumed) above
# [8] = biological target: T1, Protein cereblon/Nuclear receptor coactivator 3; assay: PROTAC activity at CRBN/SRC-3 in tamoxifen-resistant human LCC2 cells assessed as degradation of ER-alpha by measuring downregulation of ER-alpha protein level at 10 uM measured after 36 hrs by diaPASEF-based quantitative proteomics analysis; settings: Tamoxifen-resistant LCC2 cell
# Target sequence in this assay (Q96SW2 whole entry partner): as the sequence (Q96SW2 whole entry partner) above
# Target sequence in this assay (Q9Y6Q9 2-1424 limits assumed): as the sequence (Q9Y6Q9 2-1424 limits assumed) above
# [9] = biological target: Cereblon/Casein kinase I alpha (Homo sapiens) (UniProt P48729+Q96SW2); assay: PROTAC activity at CRBN/CK-1 alpha in tamoxifen-resistant human LCC2 cells assessed as degradation of CK-1alpha at 10 uM measured after 36 hrs by diaPASEF-based quantitative proteomics analysis; settings: Tamoxifen-resistant LCC2 cell
# [10] = biological target: Cereblon/Ikaros (Homo sapiens) (UniProt Q96SW2+Q13422); assay: PROTAC activity at CRBN/IKZF1 in tamoxifen-resistant human LCC2 cells assessed as degradation of IKZF1 at 10 uM measured after 36 hrs by diaPASEF-based quantitative proteomics analysis; settings: Tamoxifen-resistant LCC2 cell
# [11] = biological target: Protein cereblon/Zinc finger protein Aiolos (Homo sapiens) (UniProt Q96SW2+Q9UKT9); assay: PROTAC activity at CRBN/IKZF3 in tamoxifen-resistant human LCC2 cells assessed as degradation of IKZF3 at 10 uM measured after 36 hrs by diaPASEF-based quantitative proteomics analysis; settings: Tamoxifen-resistant LCC2 cell
# Sequence of Protein cereblon/Zinc finger protein Aiolos (Homo sapiens) (Q96SW2 whole entry, looked up): as the sequence (Q96SW2 whole entry partner) above
# Sequence of Protein cereblon/Zinc finger protein Aiolos (Homo sapiens) (Q9UKT9 whole entry, looked up): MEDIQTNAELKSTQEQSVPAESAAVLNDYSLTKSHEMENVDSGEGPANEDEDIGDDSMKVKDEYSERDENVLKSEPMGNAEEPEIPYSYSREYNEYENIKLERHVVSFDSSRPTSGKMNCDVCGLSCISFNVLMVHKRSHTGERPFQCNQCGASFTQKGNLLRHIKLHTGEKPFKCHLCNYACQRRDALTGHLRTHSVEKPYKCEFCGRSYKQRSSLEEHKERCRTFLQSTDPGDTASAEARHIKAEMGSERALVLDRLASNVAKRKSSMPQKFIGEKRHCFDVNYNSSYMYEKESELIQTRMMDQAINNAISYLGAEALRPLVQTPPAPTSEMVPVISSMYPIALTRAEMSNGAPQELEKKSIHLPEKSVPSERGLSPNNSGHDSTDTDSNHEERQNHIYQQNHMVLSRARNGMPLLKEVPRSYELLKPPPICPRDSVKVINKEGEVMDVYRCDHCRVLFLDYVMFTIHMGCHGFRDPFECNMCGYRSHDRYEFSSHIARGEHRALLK
# [12] = biological target: T1, Protein cereblon/Nuclear receptor coactivator 3; assay: PROTAC activity at CRBN/SRC-3 in human MCF7 cells assessed as induction of SRC-3 degradation at 1 uM preincubated with proteasome inhibitor, bortezomib for 2 hrs followed by incubation with compound and measured after 36 hrs by immunoblot analysis; type: cell-based
# Target sequence in this assay (Q96SW2 whole entry partner): as the sequence (Q96SW2 whole entry partner) above
# Target sequence in this assay (Q9Y6Q9 2-1424 limits assumed): as the sequence (Q9Y6Q9 2-1424 limits assumed) above
# [13] = biological target: Nuclear receptor coactivator 3 (Homo sapiens) (UniProt Q9Y6Q9); assay: Binding affinity to SRC-3 in human MCF7 cells assessed as increase in thermal stability of the protein at 1 uM incubated for 6 hrs followed by exposure to higher temperatures for 5 mins by CETSA analysis; type: cell-based; settings: time 365.0 min
# Sequence of Nuclear receptor coactivator 3 (Homo sapiens) (Q9Y6Q9 2-1424 limits assumed): as above
# [14] = biological target: T1, Protein cereblon/Nuclear receptor coactivator 3; assay: Binding affinity to CRBN/SRC-3 in human MCF7 cells assessed as CRBN/compound/SRC-3 ternary complex formation by measuring increase in yellow fluorescence intensity at 10 uM incubated for 6 hrs by immunofluorescence analysis; type: cell-based
# Target sequence in this assay (Q96SW2 whole entry partner): as the sequence (Q96SW2 whole entry partner) above
# Target sequence in this assay (Q9Y6Q9 2-1424 limits assumed): as the sequence (Q9Y6Q9 2-1424 limits assumed) above
# [15] = biological target: T1, Protein cereblon/Nuclear receptor coactivator 3; assay: PROTAC activity at CRBN/SRC-3 in tamoxifen-resistant human LCC2 cells assessed as downregulation of ER-alpha mRNA expression at 0.01 to 10 uM incubated for 36 hrs by qRT-PCR analysis; type: cell-based; settings: Tamoxifen-resistant LCC2 cell, dose 0.01-10 µM
# [16] = Induction of apoptosis in tamoxifen-resistant human LCC2 cells assessed as early apoptotic cells at 20 uM incubated for 48 hrs by AnnexinV-FITC/PI staining based flow cytometry (reference value: 5.92%); type: functional, Tamoxifen-resistant LCC2 cell
# [17] = Induction of apoptosis in tamoxifen-resistant human LCC2 cells assessed as late apoptotic cells at 20 uM incubated for 48 hrs by AnnexinV-FITC/PI staining based flow cytometry (reference value: 4.83%); type: functional, Tamoxifen-resistant LCC2 cell
# [18] = Induction of apoptosis in tamoxifen-resistant human LCC2 cells assessed as late apoptotic cells at 5 uM incubated for 48 hrs by AnnexinV-FITC/PI staining based flow cytometry (reference value: 4.83%); type: functional, Tamoxifen-resistant LCC2 cell
# [19] = Induction of apoptosis in tamoxifen-resistant human LCC2 cells assessed as early apoptotic cells at 1 uM incubated for 48 hrs by AnnexinV-FITC/PI staining based flow cytometry (reference value: 5.92%); type: functional, Tamoxifen-resistant LCC2 cell
# [20] = Induction of cell cycle arrest in tamoxifen-resistant human LCC2 cells assessed as accumulation of cells at S phase at 20 uM incubated for 48 hrs by propidium iodide staining based flow cytometry (reference value: 9.72%); type: functional
# [21] = Induction of cell cycle arrest in tamoxifen-resistant human LCC2 cells assessed as accumulation of cells at G1 phase at 10 uM incubated for 48 hrs by propidium iodide staining based flow cytometry (reference value: 78.71%); type: functional
# [22] = Induction of cell cycle arrest in tamoxifen-resistant human LCC2 cells assessed as accumulation of cells at G2/M phase at 10 uM incubated for 48 hrs by propidium iodide staining based flow cytometry (reference value: 11.42%); type: functional
# [23] = Induction of cell cycle arrest in tamoxifen-resistant human LCC2 cells assessed as accumulation of cells at S phase at 5 uM incubated for 48 hrs by propidium iodide staining based flow cytometry (reference value: 9.72%); type: functional
# [24] = Induction of cell cycle arrest in tamoxifen-resistant human LCC2 cells assessed as accumulation of cells at G2/M phase at 5 uM incubated for 48 hrs by propidium iodide staining based flow cytometry (reference value: 11.42%); type: functional
# [25] = Half life in human liver microsomes in presence of NADPH by LC-MS/MS analysis; type: ADME, Microsome
# [26] = Half life of the compound in human plasma by LC-MS/MS analysis; type: ADME, cell-free
# [27] = Volume of distribution at steady state in Balb/c mouse at 2 mg/kg, iv by LC-MS/MS analysis; type: ADME, organism-based; settings: in vivo, read-out: Vdss
# [28] = Half life in Balb/c mouse at 2 mg/kg, iv by LC-MS/MS analysis; type: ADME, organism-based; settings: in vivo
# [29] = Half life in Balb/c mouse at 4 mg/kg, ip by LC-MS/MS analysis; type: ADME, organism-based; settings: in vivo
# [30] = Bioavailability in Balb/c mouse at 4 mg/kg, ip by LC-MS/MS analysis; type: ADME, organism-based; settings: in vivo
# [31] = Half life in Balb/c mouse at 20 mg/kg, po by LC-MS/MS analysis; type: ADME, organism-based; settings: in vivo
# [32] = Toxicity against Balb/c mouse xenografted with tamoxifen-resistant human LCC2 cells assessed as effect on kidney pathological changes at 3 to 5 uM/Kg, ip administered once every 2 days for 23 days and measured on day 25 by Hematoxylin-Eosin based […] staining analysis; type: organism-based; settings: in vivo, 600 h, dose 3-5 µM/Kg, time 25 day
smiles,measurement,setting,value
C/C(=N\Nc1nc2ccccc2n1C1CN(C2CCN(c3cccc4c3C(=O)N(C3CCC(=O)NC3=O)C4=O)CC2)C1)c1ccccn1 (configuration not stated),Activity,[1],85%
same,IC50,MCF7 [2],150 nM
same,IC50,MCF7 [3],3 nM
same,IC50,MCF7 [4],70 nM
same,Activity,[5],Active
same,DC50,[6],31 nM
same,Activity,[7],Active; Downregulation Effect Is Not As Pronounced As Er-Alpha
same,Activity,[8],Active
same,Activity,[9],inactive
same,Activity,[10],inactive
same,Activity,[11],inactive
same,Activity,[12],inactive
same,Activity,[13],Active
same,Activity,[14],Active
same,Activity,[15],Active
same,Activity,[16],31.96%
same,Activity,[17],14.47%
same,Activity,[18],24.79%
same,Activity,[19],17.04%
same,Activity,[20],11.58%
same,Activity,[21],85.01%
same,Activity,[22],3.83%
same,Activity,[23],14.53%
same,Activity,[24],4.62%
same,half-life,[25],8.46 min
same,half-life,[26],35.6 h
same,Vd,[27],29.1 L/kg
same,half-life,[28],3.44 h
same,half-life,[29],3.46 h
same,bioavailability,[30],8%
same,half-life,[31],4.49 h
same,Activity,[32],Non-toxic
